Data reported in PubChem BioAssay (NCI).
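These data come from cells grown in 96-well plates and exposed to compound for 48 hours at five concentrations. GI50 is the concentration that inhibits growth by half. TGI: total growth inhibition.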

Legend:
Assay in all cases: NCI-60 cell line screen, 48 h
[1] = system: OVCAR-4 ovarian
[2] = system: NCI-H460 lung
[3] = system: HCT-116 colon
[4] = system: OVCAR-3 ovarian
[5] = system: MDA-MB-435
[6] = system: UACC-62 melanoma
[7] = system: SK-MEL-5 melanoma
[8] = system: RXF 393 renal
[9] = system: PC-3 prostate
[10] = system: CCRF-CEM leukemia
[11] = system: HT29 colon
[12] = system: HS 578T breast
[13] = system: SNB-19 CNS
[14] = system: COLO 205 colon
[15] = system: HCT-15 colon
[16] = system: DU-145 prostate
[17] = system: MDA-MB-231 breast
[18] = system: A549 NSCLC
[19] = system: HL-60(TB) leukemia
[20] = system: NCI-H23 lung
[21] = system: IGROV1 ovarian
[22] = system: T-47D breast
[23] = system: HOP-92 NSCLC
[24] = system: SF-539 CNS
[25] = system: SK-MEL-28 melanoma
[26] = system: SF-268 CNS
[27] = system: MOLT-4 leukemia
[28] = system: M14 melanoma
[29] = system: NCI-H522 lung
[30] = system: UACC-257 melanoma
[31] = system: 786-0 renal
[32] = system: NCI-H226 lung
[33] = system: LOX IMVI melanoma
[34] = system: HOP-62 NSCLC
[35] = system: HCC-2998 colon
[36] = system: TK-10 renal
[37] = system: OVCAR-5 ovarian
[38] = system: CAKI-1 renal
[39] = system: SF-295 CNS
[40] = system: A498 renal
[41] = system: SK-OV-3 ovarian
[42] = system: SK-MEL-2 melanoma
[43] = system: UO-31 renal
[44] = system: SN12C renal
[45] = system: OVCAR-8 ovarian
[46] = system: RPMI-8226 leukemia
[47] = system: U251 CNS
[48] = system: EKVX NSCLC
[49] = system: ACHN renal
[50] = system: BT-549 breast
[51] = system: SNB-75 CNS
[52] = system: KM12 colon
[53] = system: MCF7 breast
[54] = system: MALME-3M melanoma
[55] = system: K-562 leukemia
[56] = system: SW-620 colon
[57] = system: NCI/ADR-RES ovarian

CCSc1nc(=S)[nH]c2[nH]ncc12
GI50 [1]: > 100 µM
TGI [1]: > 100 µM
GI50 [2]: > 100 µM
TGI [2]: > 100 µM
GI50 [3]: > 100 µM
TGI [3]: > 100 µM
GI50 [4]: 64.6 µM
TGI [4]: > 100 µM
GI50 [5]: 63.1 µM
TGI [5]: > 100 µM
GI50 [6]: 66.3 µM
TGI [6]: > 100 µM
GI50 [7]: 59.1 µM
TGI [7]: > 100 µM
GI50 [8]: 98.3 µM
TGI [8]: > 100 µM
GI50 [9]: > 100 µM
TGI [9]: > 100 µM
GI50 [10]: 59 µM
TGI [10]: > 100 µM
GI50 [11]: > 100 µM
TGI [11]: > 100 µM
GI50 [12]: 26 µM
TGI [12]: 60.8 µM
GI50 [13]: > 100 µM
TGI [13]: > 100 µM
GI50 [14]: 38.1 µM
TGI [14]: > 100 µM
GI50 [15]: > 100 µM
TGI [15]: > 100 µM
GI50 [16]: > 100 µM
TGI [16]: > 100 µM
GI50 [17]: > 100 µM
TGI [17]: > 100 µM
GI50 [18]: > 100 µM
TGI [18]: > 100 µM
GI50 [19]: > 100 µM
TGI [19]: > 100 µM
GI50 [20]: > 100 µM
TGI [20]: > 100 µM
GI50 [21]: 70.3 µM
TGI [21]: > 100 µM
GI50 [22]: 86.1 µM
TGI [22]: > 100 µM
GI50 [23]: 91.6 µM
TGI [23]: > 100 µM
GI50 [24]: 45.1 µM
TGI [24]: > 100 µM
GI50 [25]: > 100 µM
TGI [25]: > 100 µM
GI50 [26]: 51.9 µM
TGI [26]: > 100 µM
GI50 [27]: > 100 µM
TGI [27]: > 100 µM
GI50 [28]: > 100 µM
TGI [28]: > 100 µM
GI50 [29]: 46.1 µM
TGI [29]: > 100 µM
GI50 [30]: > 100 µM
TGI [30]: > 100 µM
GI50 [31]: > 100 µM
TGI [31]: > 100 µM
GI50 [32]: 70.6 µM
TGI [32]: > 100 µM
GI50 [33]: 49.3 µM
TGI [33]: > 100 µM
GI50 [34]: > 100 µM
TGI [34]: > 100 µM
GI50 [35]: 59.1 µM
TGI [35]: > 100 µM
GI50 [36]: 88.9 µM
TGI [36]: > 100 µM
GI50 [37]: > 100 µM
TGI [37]: > 100 µM
GI50 [38]: 50.8 µM
TGI [38]: > 100 µM
GI50 [39]: > 100 µM
TGI [39]: > 100 µM
GI50 [40]: 21.6 µM
TGI [40]: 72.7 µM
GI50 [41]: 78.9 µM
TGI [41]: > 100 µM
GI50 [42]: > 100 µM
TGI [42]: > 100 µM
GI50 [43]: 75.2 µM
TGI [43]: > 100 µM
GI50 [44]: > 100 µM
TGI [44]: > 100 µM
GI50 [45]: > 100 µM
TGI [45]: > 100 µM
GI50 [46]: > 100 µM
TGI [46]: > 100 µM
GI50 [47]: > 100 µM
TGI [47]: > 100 µM
GI50 [48]: 54.1 µM
TGI [48]: > 100 µM
GI50 [49]: 93.6 µM
TGI [49]: > 100 µM
GI50 [50]: > 100 µM
TGI [50]: > 100 µM
GI50 [51]: > 100 µM
TGI [51]: > 100 µM
GI50 [52]: 86.5 µM
TGI [52]: > 100 µM
GI50 [53]: 66.8 µM
TGI [53]: > 100 µM
GI50 [54]: > 100 µM
TGI [54]: > 100 µM
GI50 [55]: > 100 µM
TGI [55]: > 100 µM
GI50 [56]: 97.8 µM
TGI [56]: > 100 µM
GI50 [57]: > 100 µM
TGI [57]: > 100 µM
